Data as given in article PMC5539802 (2014).

Key:
[1] = tested on: PS2.M (DNA, G4) GTGGGTAGGGCGGGTTGG; assay: luminescence enhancement; conditions: 100 mM K+ (annealing); 1 μM complex, 5 μM DNA; 20 mM Tris-HCl pH 7.0
[2] = tested on: F21T (DNA, G4) GGGTTAGGGTTAGGGTTAGGG; assay: FRET melting; conditions: 100 mM K+; potassium cacodylate pH 7.0; 200 nM DNA; complex concentration not in material
[3] = tested on: F10T (DNA, hairpin, hexaethylene glycol (HEG) linker between nucleotides 8 and 9) TATAGCTATATAGCTATAT; assay: FRET melting; conditions: 10 mM Li+; lithium cacodylate pH 7.4; same complex concentration as F21T
[4] = tested on: ON1 (DNA, G4) GTGGGTAGGGCGGGTTGGTGGCGACGGCAGCGAGGCAGAGGAGCAGAGGGAGCA; assay: luminescence enhancement; conditions: 20 mM K+, 150 mM NH4+; 20 mM Tris pH 7.2; 1 μM complex; G-quadruplex released by helicase unwinding of ON1-ON2
[5] = tested on: ON1-ON2 duplex substrate (DNA, duplex) GTGGGTAGGGCGGGTTGGTGGCGACGGCAGCGAGGCAGAGGAGCAGAGGGAGCA/GCCTCGCTGCCGTCGCCACCAACCCGCCC; assay: luminescence enhancement; conditions: 20 mM K+, 150 mM NH4+; 20 mM Tris pH 7.2; 1 μM complex; duplex without helicase unwinding
[6] = tested on: ds17 (DNA, duplex) CCAGTTCGTAGTAACCC/GGGTTACTACGAACTGG; assay: G4-FID thiazole orange displacement; conditions: Tris-HCl buffer; thiazole orange 0.5 μM displaced; less effective than for Pu27

In the case of `Clc1cc2cccnc2c2ncccc12.[Ir+3].[c-]1ccccc1-c1ccc2ccccc2n1.[c-]1ccccc1-c1ccc2ccccc2n1`, the binding [1] is reported as “yes”.

For `[Ir+3].[c-]1ccccc1-c1ccc2ccccc2n1.[c-]1ccccc1-c1ccc2ccccc2n1.c1cnc2c(c1)ccc1cccnc12`, the ΔTm [2] was ~ 13 °C, the ΔTm [3] was 4 °C and the binding [1] was “yes”. For the same compound, the binding [4] was “yes”, the binding [5] was “weak” and the binding [6] was “weak”.
